ChEMBL document CHEMBL1201862, “PubChem BioAssay data set” (2004)
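Tested at 5 concentrations; 48 h exposure; 96-well plates; endpoints linearly interpolated, else capped at highest concentration. Abbreviation: GI50, concentration required for 50% inhibition of growth.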 Calls of active or inactive are those of the source. Cut-off read from the data, not from the text of the source: active = GI50 up to about 1.1 µM and inactive = higher.

How the values were obtained:
Test in all cases: NCI tumour cell line growth inhibition, 48 h
[1] = test system: 786-0
[2] = test system: A498
[3] = test system: CCRF-CEM
[4] = test system: COLO 205
[5] = test system: DU-145
[6] = test system: EKVX
[7] = test system: HCT-15
[8] = test system: HOP-62
[9] = test system: IGROV-1
[10] = test system: MOLT-4
[11] = test system: OVCAR-4
[12] = test system: OVCAR-5
[13] = test system: PC-3
[14] = test system: SF-295
[15] = test system: SK-MEL-2
[16] = test system: SNB-19
[17] = test system: SNB-75
[18] = test system: SW-620
[19] = test system: U-251
[20] = test system: UACC-62

`Cc1nc2c(sc3nc4c(cc32)CCC4)c(=O)o1` was tested. Which GI50 [1] did it give?
The GI50 was > 72.4 µM (inactive).

And the GI50 [2]?
The GI50 was > 100 µM (inactive).

What about the GI50 [3] of the same molecule?
The GI50 was 40.8 µM (inactive).

What about the GI50 [4] of the same molecule?
The GI50 was 54.6 µM (inactive).

What about the GI50 [5] of the same molecule?
Its GI50 is > 100 µM (inactive).

And the GI50 [6]?
Its GI50 is > 100 µM (inactive).

What about the GI50 [7] of the same molecule?
Its GI50 is 34.4 µM.

What about the GI50 [8] of the same molecule?
Its GI50 is > 100 µM (inactive).

And the GI50 [9]?
The GI50 was 20.6 µM (inactive).

What about the GI50 [10] of the same molecule?
Its GI50 is 41.9 µM (inactive).

And the GI50 [11]?
The GI50 was 32.4 µM (inactive).

And the GI50 [12]?
The GI50 was > 95.1 µM (inactive).

And the GI50 [13]?
The GI50 was > 100 µM (inactive).

What about the GI50 [14] of the same molecule?
Its GI50 is > 100 µM (inactive).

What about the GI50 [15] of the same molecule?
Its GI50 is > 100 µM (inactive).

What about the GI50 [16] of the same molecule?
Its GI50 is > 53.2 µM (inactive).

And the GI50 [17]?
The GI50 was > 68.4 µM (inactive).

And the GI50 [18]?
The GI50 was > 59.7 µM (inactive).

What about the GI50 [19] of the same molecule?
The GI50 was > 83.2 µM (inactive).

What about the GI50 [20] of the same molecule?
Its GI50 is > 100 µM (inactive).

With `NC(=S)Nc1ccc2c(c1)oc1ccccc12` as the molecule, how does the GI50 [1] read?
Its GI50 is > 100 µM (inactive).

And the GI50 [2]?
The GI50 was > 100 µM (inactive).

What about the GI50 [3] of the same molecule?
The GI50 was 9.91 µM (inactive).

And the GI50 [4]?
Its GI50 is > 100 µM (inactive).

What about the GI50 [5] of the same molecule?
The GI50 was > 100 µM (inactive).

What about the GI50 [6] of the same molecule?
The GI50 was 10.4 µM (inactive).

What about the GI50 [7] of the same molecule?
Its GI50 is 55.1 µM.

What about the GI50 [8] of the same molecule?
Its GI50 is > 100 µM (inactive).

What about the GI50 [9] of the same molecule?
Its GI50 is > 100 µM (inactive).

And the GI50 [10]?
Its GI50 is 7.1 µM (inactive).

And the GI50 [11]?
The GI50 was > 100 µM (inactive).

What about the GI50 [12] of the same molecule?
The GI50 was > 100 µM (inactive).

What about the GI50 [13] of the same molecule?
The GI50 was > 100 µM (inactive).

And the GI50 [14]?
The GI50 was > 100 µM (inactive).

And the GI50 [15]?
The GI50 was > 100 µM (inactive).

And the GI50 [16]?
Its GI50 is > 100 µM (inactive).

And the GI50 [17]?
The GI50 was > 100 µM (inactive).

What about the GI50 [18] of the same molecule?
The GI50 was > 100 µM (inactive).

And the GI50 [19]?
The GI50 was > 100 µM (inactive).

What about the GI50 [20] of the same molecule?
The GI50 was > 100 µM (inactive).

Which results are given for `CCOC(=O)/C=C(/C=C\COC1CCCCO1)c1ccccc1` (configuration not stated)?
GI50 [1]: 24.7 µM (inactive); GI50 [2]: > 100 µM (inactive); GI50 [3]: 25.6 µM (inactive); GI50 [4]: > 100 µM (inactive); GI50 [5]: 40 µM (inactive); GI50 [6]: 43.3 µM (inactive); GI50 [7]: 27.4 µM; GI50 [8]: > 100 µM (inactive); GI50 [9]: 31.2 µM (inactive); GI50 [10]: 20.4 µM (inactive); GI50 [11]: 31.5 µM (inactive); GI50 [12]: 96.2 µM (inactive); GI50 [13]: 35.6 µM (inactive); GI50 [14]: 24.8 µM (inactive); GI50 [15]: 55.2 µM (inactive); GI50 [16]: 36.5 µM (inactive); GI50 [17]: 23.4 µM (inactive); GI50 [18]: 28.3 µM (inactive); GI50 [19]: 26.1 µM (inactive); GI50 [20]: 24.5 µM (inactive)

Which results are given for `O1C2C1C1OC1C1OC1C1OC21` (configuration not stated)?
GI50 [1]: > 100 µM (inactive); GI50 [2]: > 100 µM (inactive); GI50 [3]: < 0.01 µM (active); GI50 [4]: > 100 µM (inactive); GI50 [5]: > 100 µM (inactive); GI50 [6]: > 100 µM (inactive); GI50 [7]: > 100 µM; GI50 [8]: > 100 µM (inactive); GI50 [10]: > 100 µM (inactive); GI50 [11]: > 100 µM (inactive); GI50 [12]: > 100 µM (inactive); GI50 [13]: > 100 µM (inactive); GI50 [14]: > 100 µM (inactive); GI50 [15]: > 100 µM (inactive); GI50 [16]: > 100 µM (inactive); GI50 [17]: 46.6 µM (inactive); GI50 [19]: > 100 µM (inactive); GI50 [20]: > 100 µM (inactive)

Which results are given for `Fc1ccc(F)c(/C=N/C23CC4CC(CC(C4)C2)C3)c1`?
GI50 [1]: > 10 µM (inactive); GI50 [2]: > 10 µM (inactive); GI50 [3]: 5.13 µM (inactive); GI50 [4]: > 10 µM (inactive); GI50 [5]: > 10 µM (inactive); GI50 [6]: > 10 µM (inactive); GI50 [7]: > 10 µM; GI50 [8]: > 10 µM (inactive); GI50 [9]: > 10 µM (inactive); GI50 [10]: > 10 µM (inactive); GI50 [11]: > 10 µM (inactive); GI50 [12]: > 10 µM (inactive); GI50 [13]: > 10 µM (inactive); GI50 [14]: > 10 µM (inactive); GI50 [15]: > 10 µM (inactive); GI50 [16]: > 10 µM (inactive); GI50 [17]: > 10 µM (inactive); GI50 [18]: > 10 µM (inactive); GI50 [19]: > 10 µM (inactive)

What does the source list for `O=C(CCC(NC(=O)OCc1ccccc1)C(=O)OCc1ccccc1)Nc1ccc(OCc2ccccc2)cc1` (configuration not stated)?
GI50 [1]: 12.6 µM (inactive); GI50 [2]: > 10 µM (inactive); GI50 [3]: 21.8 µM (inactive); GI50 [4]: 25.8 µM (inactive); GI50 [5]: > 31.6 µM (inactive); GI50 [6]: > 31.6 µM (inactive); GI50 [7]: 13.1 µM; GI50 [8]: > 78.7 µM (inactive); GI50 [9]: > 31.6 µM (inactive); GI50 [10]: 24.6 µM (inactive); GI50 [11]: 25.2 µM (inactive); GI50 [12]: > 100 µM (inactive); GI50 [13]: 13.2 µM (inactive); GI50 [14]: > 31.6 µM (inactive); GI50 [15]: > 10 µM (inactive); GI50 [16]: 21.7 µM (inactive); GI50 [17]: > 31.6 µM (inactive); GI50 [18]: 25.7 µM (inactive); GI50 [19]: 17.1 µM (inactive); GI50 [20]: > 31.6 µM (inactive)
